Values quoted from earlier work, collected in US7851640B2, “Catalytic enantioselective synthesis of flavanones and chromanones” (Northwestern University, priority 2008, dated 2010).

System: MMP-2
Details: PCa cells treated with genistein

## O=c1c(-c2ccc(O)cc2)coc2cc(O)cc(O)c12 [genistein]
  levels of MMP-2 gene transcript and protein: decreased levels of both MMP-2 gene transcript and protein
